Reference: patent US20230303552A1, “ARYLSULFONYL DERIVATIVES AND THEIR USE AS MUSCARINIC ACETYLCHOLINE RECEPTOR M5 INHIBITORS” (Vanderbilt University, priority 2020, published 2023)

Target: T1, human M5 receptors (hM5) (Homo sapiens, UniProt P08912)
T1 construct: expressed in transfected cells
T1 sequence (P08912 1-532): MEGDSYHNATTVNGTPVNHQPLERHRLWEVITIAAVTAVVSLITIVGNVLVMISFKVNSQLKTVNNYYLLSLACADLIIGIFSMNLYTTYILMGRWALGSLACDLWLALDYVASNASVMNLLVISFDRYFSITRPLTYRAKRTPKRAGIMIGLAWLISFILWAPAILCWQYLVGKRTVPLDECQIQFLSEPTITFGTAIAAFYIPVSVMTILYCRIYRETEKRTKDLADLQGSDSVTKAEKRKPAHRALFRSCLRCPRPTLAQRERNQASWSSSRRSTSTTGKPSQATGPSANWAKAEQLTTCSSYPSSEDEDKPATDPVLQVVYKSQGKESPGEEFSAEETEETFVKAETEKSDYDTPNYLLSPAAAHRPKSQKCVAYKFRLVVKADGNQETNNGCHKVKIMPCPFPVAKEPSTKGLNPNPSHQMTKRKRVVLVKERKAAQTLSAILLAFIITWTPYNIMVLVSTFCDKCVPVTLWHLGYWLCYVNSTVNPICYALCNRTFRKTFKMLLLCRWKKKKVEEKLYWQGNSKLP
Assay: Cell-based functional calcium mobilization assay of mAChR M5 activity (inhibition of EC80 acetylcholine response) in CHO cells
Conditions: CHO cells stably expressing hM5; for IC50: calcium flux (Fluo-4), EC80 acetylcholine addition; for EC80 MIN: minimum of EC80 acetylcholine response, normalized to maximum acetylcholine response
Description: All functional cell-based assays were performed essentially as previously described (Marlo et al., Mol.Pharm. 2009, 75(3), 577-588; Brady et al., J. Pharm. & Exp. Ther. 2008, 327, 941-953). Initial, single point (10 µM) competitive and non-competitive inhibitor characterization was performed in stable Chinese Hamster Ovary (CHO) cell lines constitutively expressing human M5 receptors. These were plated at 15,000 cells per 20 µL per well in Greiner 384-well black-walled, TC-treated, clear-bottomed plates (Fisher) in Ham’s F12 medium supplemented with 10% FBS and 20 mM HEPES. Cells were incubated overnight at 37° C. under 5% CO2. The following day, medium was exchanged with assay buffer (Hank’s Balanced Salt Solution supplemented with 20 mM HEPES and 2.5 mM Probenecid, pH 7.4) leaving 20 µL of assay buffer in each well. This was followed by the addition of 20 µL of 2.3 µM of Fluo-4 AM (Invitrogen) in assay buffer (final concentration 1.15 µM). The cells were then incubated 50 minutes at 37° C. under 5% CO2. The assay buffer plus dye was then exchanged with fresh assay buffer leaving a volume of 20 µL in each well. Test compounds were diluted into assay buffer to a 2X (20 µM) concentration in 0.2% dimethylsulfoxide (DMSO) in columns 3 - 22 with matching DMSO concentration in columns 1, 2, 23, and […]; compounds were added to the assay for a final concentration of 10 µM and a final DMSO concentration of 0.1%. Acetylcholine (Sigma-Aldrich) was prepared to provide 5X concentrations of EC20, EC80, and ECmax in the triple-addition assay, providing a signal window to view agonism, potentiation, and inhibition of the acetylcholine response as well as a means to normalize to the maximum acetylcholine response.
Either an FDSS (Hamamatsu) or Panoptic (WaveFront Biosciences) kinetic imaging plate reader was used for assay execution and measurement of calcium flux. After establishing baseline fluorescence, test compounds (20 µL) were added to the cells using the reader’s integrated pipettor and allowed to equilibrate for 140 seconds before addition of the EC20 concentration of acetylcholine (10 µL) along with vehicle in selected DMSO-only wells in the outer two columns. The EC80 concentration of acetylcholine (10 µL) was added 125 seconds after the EC20 addition along with ECmax concentration in the wells receiving vehicle in the second addition. The raw fluorescence data from each well was normalized to the corresponding initial fluorescence reading (static ratio). The maximum fluorescence value following each addition was determined and the minimum value within that same timeframe was subtracted for each well then normalized to the average of the ECmax maximum-minimum response, providing a %AChmax value for each addition for each well. The single point values represent mean values determined within the EC80 addition timeframe obtained from at least three independent determinations performed in triplicate or greater (error bars represent +/- SEM) unless otherwise specified.
Further characterization of competitive and non-competitive inhibitor compounds (compound potency and mAChR subtype-selectivity) was performed on the FDSS with calcium mobilization assays performed as previously described (Marlo et al., 2009; Brady et al., 2008) and in a format similar to that described above using the same reagents. CHO cells stably expressing hM1, hM2/Gqi5, hM3, hM4/Gqi5, hM5, rM1, rM2/Gqi5, rM3, rM4/Gqi5, or rMs were plated in the manner described above. A ten-point concentration range of test compound was serial diluted in assay buffer to 2X final concentration and acetylcholine was diluted in assay buffer to 5X of the EC20 and EC80 concentrations, determined empirically and 5X maximal (2 mM final concentration) stock concentrations. FDSS protocols were carried out as described above; the static ratio was calculated and the minimum response subtracted from the maximum response within the timeframe of each addition. […]

| SMILES | IC50 | EC80 MIN |
| --- | --- | --- |
| O=C(Nc1ccc2scnc2c1)[C@H]1CCN(S(=O)(=O)c2ccc3c(c2)CCO3)C[C@@H]1F (racemic) [Compound 86, Trans-(rac)-N-(Benzo[d]thiazol-5-yl)-1-((2,3-Dihydrobenzofuran-5-yl)Sulfonyl)-3-Fluoropiperidine-4-Carboxamide] | 177 nM | 2% |
| CC1Cc2cc(S(=O)(=O)N3CCC(C(=O)Nc4ccc5scnc5c4)CC3)ccc2O1 (racemic) [Compound 87, (rac)-N-(benzo[d]thiazol-5-yl)-1-((2-methyl-2.3-dihydrobenzofuran-5-yl)sulfonyl)piperidine-4-carboxamide] | > 10000 nM |  |
| C[C@@H]1CN(S(=O)(=O)c2ccc3ncsc3c2)CC[C@@H]1C(=O)Nc1ccc2scnc2c1 (racemic) [Compound 93, cis-(rac)-N-(benzo[d]thiazol-5-y1)-1-(benzo[d]thiazol-6-ylsulfonyl)-3-methylpiperidine-4-carboxamide] | 2940 nM | 4% |
| C[C@@H]1CN(S(=O)(=O)c2ccc(Cl)nc2)CC[C@@H]1C(=O)Nc1ccc2scnc2c1 (racemic) [Compound 94, cis-(rac)-N-(benzo[d]thiazol-5-yl)-1-((6-chloropyridin-3-yl)sulfonyl)-3-methylpiperidine-4-carboxamide] | 4570 nM | 4% |
| Cc1nn(C)cc1S(=O)(=O)N1CC[C@H](C(=O)Nc2ccc3scnc3c2)[C@H](C)C1 (racemic) [Compound 95, cis-(rac)-,N^_ (benzo[d]thiazol-5-yl)-1-((1,3-dimethyl-1H-pyrazol-4-yl)sulfonyl)-3-methylpiperidine-4-carboxamide] | 4490 nM | 5% |
| C[C@@H]1CN(S(=O)(=O)c2cccc3nsnc23)CC[C@@H]1C(=O)Nc1ccc2scnc2c1 (racemic) [Compound 96, cis-(rac)-1-(benzo[c][1,2,5]thiadiazol-4-ylsulfonyl)-N-(benzo[d]thiazol-5-yl)-3-methylpiperidine-4-carboxamide] | 1110 nM | 3% |
| C[C@@H]1C[C@H](C(=O)Nc2ccc3scnc3c2)CCN1S(=O)(=O)c1ccc2c(c1)CCO2 (racemic) [Compound 97, cis-(rac)-N-(benzo[d]thiazol-5-yl)-1-((2,3-dihydrobenzofuran-5-yl)sulfonyl)-2-methylpiperidine-4-carboxamide] | 159 nM | 2% |
| C[C@@H]1C[C@H](C(=O)Nc2ccc3scnc3c2)CCN1S(=O)(=O)c1cccc2nsnc12 (racemic) [Compound 99, cis-(rac)-1-(benzo[c][1,2.5]thiadiazol-4-ylsulfonyl)-N-(benzo[d]thiazol-5-yl)-2-methylpiperidine-4-carboxamide] | 389 nM | 3% |
| C[C@H]1CN(S(=O)(=O)c2ccc3c(c2)CCO3)CC[C@@H]1C(=O)Nc1ccc2scnc2c1 (racemic) [Compound 116, trans-(rac)-N-(benzo[d]thiazol-5-yl)-1-((2,3-dihydrobenzofuran-5-yl)sulfonyl)-3-methylpiperidine-4-carboxamide] | 1540 nM | 3% |
| C[C@H]1CN(S(=O)(=O)c2cccnc2)CC[C@@H]1C(=O)Nc1ccc2scnc2c1 (racemic) [Compound 119, trans-(rac)-N-(benzo[d]thiazol-5-yl)-3-methyl-1-(pyridin-3-ylsulfornyl)piperidine-4-carboxamide] | 982 nM | 4% |
| C[C@@H]1C[C@@H](C(=O)Nc2ccc3scnc3c2)CCN1S(=O)(=O)c1ccc(Cl)nc1 (racemic) [Compound 120, trans-(rac)-N-(benzo[d]thiazol-5-yl)-1-((6-chloropyridin-3-yl)sulfonyl)-2-methylpiperidine-4-carboxamide] | 275 nM | 3% |
| C[C@@H]1C[C@@H](C(=O)Nc2ccc3scnc3c2)CCN1S(=O)(=O)c1cccc2nsnc12 (racemic) [Compound 121, trans-(rac)-1-(benzo[c][1,2,5]thiadiazol-4-ylsulfonyl-N-(benzo[d]thiazol-5-yl)-2-methylpiperidine-4-carboxamide] | 449 nM | 3% |
| Cc1nn(C)cc1S(=O)(=O)N1CC[C@H](C(=O)Nc2ccc3scnc3c2)C[C@H]1C (racemic) [Compound 123, trans-(rac)-N-(benzo[d]thiazol-5-yl)-1-((1,3-dimethyl-1H-pyrazol-4-yl)sulfonyl)-2-methylpiperidine-4-carboxamide] | 174 nM | 3% |

Now from value to molecule:

| IC50 | EC80 MIN | SMILES |
| --- | --- | --- |
| 631 nM | 4% | C[C@@H]1CN(S(=O)(=O)c2ccc3c(c2)CCO3)CC[C@@H]1C(=O)Nc1ccc2scnc2c1 (racemic) [Compound 92, cis-(rac)-,N^_ (benzo[d]thiazol-5-yl)-1-((2,3-dihydrobenzofuran-5-yl)sulfonyl)-3-methylpiperidine-4-carboxamide] |
| 324 nM | 3% | Cc1nn(C)cc1S(=O)(=O)N1CC[C@@H](C(=O)Nc2ccc3scnc3c2)C[C@H]1C (racemic) [Compound 98, cis-(rac)-,N^_ (benzo[d]thiazol-5-yl)-1-((1,3-dimethyl-1H-pyrazol-4-yl)sulfonyl)-2-methylpiperidine-4-carboxamide] |
| > 10000 nM | 5% | C[C@@H]1CN(S(=O)(=O)c2cccnc2)CC[C@@H]1C(=O)Nc1ccc2scnc2c1 (racemic) [Compound 103, cis-(rac)-N-(benzo[d]thiazol-5-yl)-3-methyl-1-(pyridin-3-ylsulfonyl)piperidine-4-carboxamide] |
| 8920 nM | 5% | C[C@H]1CN(S(=O)(=O)c2ccc3ncsc3c2)CC[C@@H]1C(=O)Nc1ccc2scnc2c1 (racemic) [Compound 117, trans-(rac)-N-(benzo[d]thiazol-5-yl)-1-(benzo[d]thiazol-6-ylsulfonyl)-3-methylpiperidine-4-carboxamide] |
| 803 nM | 4% | C[C@H]1CN(S(=O)(=O)c2ccc(Cl)nc2)CC[C@@H]1C(=O)Nc1ccc2scnc2c1 (racemic) [Compound 118, trans-(rac)-N-(benzo[d]thiazol-5-yl)-1-((6-chloropyridin-3-yl)sulfonyl)-3-methylpiperidine-4-carboxamide] |
| 94 nM | 3% | C[C@@H]1C[C@@H](C(=O)Nc2ccc3scnc3c2)CCN1S(=O)(=O)c1ccc2c(c1)CCO2 (racemic) [Compound 122, trans-(rac)-N-(benzo[d]thiazol-5-yl)-1-((2.3-dihydrobenzofuran-5-yl)sulfonyl)-2-methylpiperidine-4-carboxamide] |
| > 10000 nM | 62% | CC1(C)COc2ccc(S(=O)(=O)N3CC4CC4(C(=O)Nc4ccc5scnc5c4)C3)cc21 (racemic) [Compound 130, (rac)-N-(benzo[d]thiazol-5-yl)-3-((3,3-dimethyl-2,3-dihydrobenzofuran-5-yl)sulfonyl)-3-azabicyclo[3.1.0)hexane-1-carboxamide] |
